Measured values taken from patent publication US4960771A, “Oxazolidinone penetration enhancing compounds” (priority 1988, dated 1990).
Structures can show the parent of a compound that is named as a salt. Where two headings read alike, the source gives them in different places. Blank lines part the entries; values can stand above or below the compound they belong to.

Columns and labels:
Murine Erythroleukemia = details: Li et al., J. Med. Chem. 24, 1089 (1981); cited from earlier work
[1] = 0.8% Clonidine; 75.2% compound + 25% isopropyl myristate vs 99.2% compound vs 99.2% DMSO; cited from earlier work
[2] = 1% Diazepam in 74% ethanol and 25% compound; cited from earlier work
[3] = for Average Cumulative Amount of ISDN in Micrograms permeating over 51 hours: cream; for permeation enhancing properties (conclusion in words): ISDN cream, 51 hours
[4] = Permeation of Diltiazem hydrochloride (DZ) from cream through human stratum corneum (Example 35); type: in vitro ADME
Description: (§1) Sci. 75, 1094 (1986). […] All formulations were studied in triplicate.

[5] = type: in vitro ADME, human
Description: as §1
The Indomethacin (INDO) gel formulation used in Example 32 was prepared as follows.

[6] = Permeation of Morphine Sulfate (MS) from transdermal patch through human stratum corneum (Example 33); type: in vitro ADME
Description: as §1
The procedure of Example 29 was repeated with Morphine Sulfate (MS) formulations incorporated in a transdermal patch.

[7] = type: in vitro ADME, human; details: for Average Cumulative Amount of PG in Micrograms permeating over 51 hours: patch, releasing media 30% ethanol in normal saline
Description: as §1
The procedure of Example 29 was repeated with Progesterone (PG) incorporated in transdermal patch formulations. The releasing media contained 30% ethanol in normal saline.

[8] = type: in vitro ADME, human; remark: listed apart in the source
Description: as §1

[9] = cream
[10] = for Average Cumulative Amount of ISDN in Micrograms permeating over 51 hours: patch
[11] = for permeation enhancing properties (conclusion in words): ISDN cream, vs control; for Average Cumulative Amount of ISDN in Micrograms permeating over 51 hours: cream, 1% ISDN + 1% enhancer
[12] = Ishihara, C.A. 105: 48896 k (1986); cited from earlier work
[13] = cited from earlier work
[14] = Barry et al., J. Pharm. Pharmacol. 37, 226 (1985); cited from earlier work

Average Cumulative Amount of ISDN in Micrograms permeating over 51 hours ([3]; 1% ISDN + 1.6% enhancer): 1020 ± 69 Micrograms
Structure (SMILES): CCCCCCCCCCC1COC(=O)N1C (centres unmarked) [Example 2, 3-methyl-4-decyloxazolidin-2-one]
permeation enhancing properties (conclusion in words) [3]: superior permeation enhancing properties as compared to control and a known permeation enhancer

Average Cumulative Amount of ISDN in Micrograms permeating over 51 hours [11]: 1057.7 ± 12.0 Micrograms
Structure (SMILES): CCCCN1C(=O)N(CCC)C(OCC)C1OCC (centres unmarked) [Example 12, 4,5-diethoxy-1-butyl-3-propylimidazolidin-2-one]
permeation enhancing properties (conclusion in words) [11]: superior permeation enhancing properties as compared to control

Average Cumulative Amount of ISDN in Micrograms permeating over 51 hours [11]: 1175.6 ± 33.6 Micrograms
Structure (SMILES): CCCCCCCCOC1C(OCCCCCCCC)N(C)C(=O)N1C (centres unmarked) [Example 15, 4,5-dioctyloxy-1,3-dimethylimidazolidin-2-one]
permeation enhancing properties (conclusion in words) [11]: superior permeation enhancing properties as compared to control

Average Cumulative Amount of ISDN in Micrograms permeating over 51 hours [11]: 1185.1 ± 94.7 Micrograms
Structure (SMILES): CCCCCCCCOCCN1CCOC1=O [Example 18, 3-(2-octyloxyethyl)oxazolidin-2-one]
permeation enhancing properties (conclusion in words) [11]: superior permeation enhancing properties as compared to control

Average Cumulative Amount of ISDN in Micrograms permeating over 51 hours [11]: 1318.4 ± 21.6 Micrograms
Structure (SMILES): CCCCCCCCCCCC1CNC(=O)N1 (centres unmarked) [Example 19, 4-undecylimidazolidin-2-one]
permeation enhancing properties (conclusion in words) [11]: superior permeation enhancing properties as compared to control

Average Cumulative Amount of ISDN in Micrograms permeating over 51 hours [11]: 1147.7 ± 36.0 Micrograms
Structure (SMILES): CCCCN1C(=O)OCC1Cc1ccccc1 (centres unmarked) [Example 20, 3-butyl-4-benzyloxazolidin-2-one]
permeation enhancing properties (conclusion in words) [11]: superior permeation enhancing properties as compared to control

Average Cumulative Amount of ISDN in Micrograms permeating over 51 hours [11]: 1257.0 ± 137.0 Micrograms
Structure (SMILES): CCCCCCCCCCCC1CN(C)C(=O)N1C (centres unmarked) [Example 21, 1,3-dimethyl-4-undecylimidazolidin-2-one]
permeation enhancing properties (conclusion in words) [11]: superior permeation enhancing properties as compared to control

Average Cumulative Amount of ISDN in Micrograms permeating over 51 hours [11]: 1091.2 ± 125.0 Micrograms
Structure (SMILES): CCCCN1CCN(CCOCC)C1=O [Example 22, 1-butyl-3-(2-ethoxyethyl)imidazolidin2-one]
permeation enhancing properties (conclusion in words) [11]: superior permeation enhancing properties as compared to control

The remaining lines, values behind:

Structure (SMILES): CCCCN1CCCN(CCCC)C1=O [1,3-dibutyltetrahydropyrimidin-2-one, 1,3-dibutyltetrahydro-pyrimidin-2-ones]
inducers of Murine Erythroleukemia differentiation (Murine Erythroleukemia): inducers of Murine Erythroleukemia differentiation

Structure (SMILES): CCN1CCCN(CC)C1=O [1,3-diethyltetrahydropyrimidin-2-one, 1,3-diethyl]
inducers of Murine Erythroleukemia differentiation (Murine Erythroleukemia): inducers of Murine Erythroleukemia differentiation

Structure (SMILES): CN1CCN(C)C1=O [1,3-dimethylimidazolidin-2-one]
tail arterial blood pressure [1]: no significant differences in tail arterial blood pressure in rats

Structure (SMILES): CCCCCN1CCN(CCCCC)C1=O [1,3-dipentylimidazolidin-2-one]
drug transport when combined with a polar substance such as ethanol [2]: potentiates the drug transport

Structure (SMILES): CCCCCCCCCCCCN1CCCCCC1=O [1-Dodecylhexahydro-2H-azepin-2-one, 1-Dodecyl-hexahydro-2H-azepin-2-one, reference compound]
Average Cumulative Amount of ISDN in Micrograms permeating over 51 hours ([3]; 1% ISDN + 1.4% enhancer): 709 ± 170 Micrograms

Structure (SMILES): COc1ccc([C@@H]2Sc3ccccc3N(CCN(C)C)C(=O)[C@@H]2OC(C)=O)cc1 [DZ, Diltiazem hydrochloride, reference compound]
Average Cumulative amount of DZ in Micrograms permeating over 24 hours ([4]; 5% DZ, no enhancer (Control)): 125.3 ± 37 Micrograms

Structure (SMILES): CCCCCCCCCCC1COC(=O)N1 (centres unmarked) [Example 1, 4-Decyloxazolidin-2-one]
advantage of incorporating enhancer (conclusion in words) ([5]; INDO gel and cream): clearly show the advantage of incorporating enhancer | Average Cumulative Amount of INDO in Micrograms permeating over 51 hours ([5]; cream, 1% INDO + 1% enhancer): 128 ± 6.1 Micrograms | Average Cumulative Amount of INDO in Micrograms permeating over 51 hours ([5]; gel, 1% INDO + 1% enhancer): 370.9 ± 56 Micrograms | superiority of patch formulation containing enhancer (conclusion in words) ([6]; MS patch): superiority of the transdermal patch formulation | Average Cumulative Amount of MS in Micrograms permeating over 51 hours ([6]; patch, 5% MS + 1% enhancer): 622 ± 81.6 Micrograms | superiority of transdermal patch containing enhancer (conclusion in words) ([7]; PG patch): superiority of the transdermal patch | Average Cumulative Amount of PG in Micrograms permeating over 51 hours ([7]; 3% PG + 5% enhancer): 434 ± 135 Micrograms | Average Cumulative amount of DZ in Micrograms permeating over 24 hours ([4]; 5% DZ + 3% enhancer): 303.0 ± 79.1 Micrograms | permeation of Diltiazem hydrochloride through the skin (conclusion in words) ([4]; vs control): improves the permeation of Diltiazem hydrochloride through the skin significantly over the control | permeation enhancement of Nicotine (conclusion in words) ([8]; cream and patch, vs control): enhances the permeation significantly over control | Average Cumulative Amount of Nicotine in Micrograms permeating over 51 hours ([8]; cream, 1% Nicotine + 3% enhancer): 2002.0 ± 74.0 Micrograms | Average Cumulative Amount of Nicotine in Micrograms permeating over 51 hours ([8]; cream, 5% Nicotine + 3% enhancer): 8497.2 ± 1195 Micrograms | Average Cumulative Amount of Nicotine in Micrograms permeating over 51 hours ([8]; patch, 5% Nicotine + 3% enhancer): 208.1 ± 23.6 Micrograms | Average Cumulative Amount of Nicotine in Micrograms permeating over 51 hours ([8]; patch, 10% Nicotine + 3% enhancer): 3520.0 ± 139.0 Micrograms | permeation enhancing properties (conclusion in words) [3]: superior permeation enhancing properties as compared to control and a known permeation enhancer | Average Cumulative Amount of ISDN in Micrograms permeating over 51 hours ([3]; 1% ISDN + 1.4% enhancer): 1275 ± 104 Micrograms | Average Cumulative Amount of HC in Micrograms permeating over 24 hours ([9]; 0.5% HC + 1% enhancer): 4.970 ± 0.79 Micrograms | permeation of HC (conclusion in words) ([9]; vs control and commercial formulation): superior permeation as compared to control cream and to a commercial formulation with higher quantity of drug | Average Cumulative Amount of ISDN in Micrograms permeating over 51 hours ([10]; 3% ISDN (60%) + 8% enhancer): 1438.4 ± 174 Micrograms | Average Cumulative Amount of ISDN in Micrograms permeating over 51 hours ([10]; 3% ISDN (100%) + 3% enhancer): 1355.8 ± 262.5 Micrograms | permeation of ISDN from the transdermal patch (conclusion in words) ([10]; vs control): superior to the control

Structure (SMILES): CCCCCCCCCCC1COC(=O)O1 (centres unmarked) [Example 10, 4-decyl-1,3-dioxolan-2-one]
permeation enhancing properties (conclusion in words) [11]: superior permeation enhancing properties as compared to control | Average Cumulative Amount of ISDN in Micrograms permeating over 51 hours [11]: 1174.5 ± 37.2 Micrograms

Structure (SMILES): CCOCCCN1CCOC1=O [Example 16, 3-(3-ethoxypropyl)oxazolidin-2-one]
permeation enhancing properties (conclusion in words) [11]: superior permeation enhancing properties as compared to control | Average Cumulative Amount of ISDN in Micrograms permeating over 51 hours [11]: 1110.9 ± 84.1 Micrograms

Structure (SMILES): COc1ccc2c(c1)c(CC(=O)O)c(C)n2C(=O)c1ccc(Cl)cc1 [INDO, Indomethacin, reference compound]
Average Cumulative Amount of INDO in Micrograms permeating over 51 hours ([5]; cream, 1% INDO, no enhancer): 72 ± 9 Micrograms | Average Cumulative Amount of INDO in Micrograms permeating over 51 hours ([5]; gel, 1% INDO, no enhancer (Control)): 304.8 ± 20 Micrograms

Structure (SMILES): CC(=O)[C@H]1CC[C@H]2[C@@H]3CCC4=CC(=O)CC[C@]4(C)[C@H]3CC[C@]12C [PG, Progesterone, reference compound]
Average Cumulative Amount of PG in Micrograms permeating over 51 hours ([7]; 3% PG, no enhancer (Control)): 86 ± 61 Micrograms

Structure (SMILES): O=C1OCCO1 [ethylene carbonate, 1,3-dioxolan-2-one]
efficacy on addition to the composition [12]: did not improve the efficacy

Structure (SMILES): CC1COC(=O)O1 (centres unmarked) [propylene carbonate, 4-methyl-1,3-dioxolan-2-one]
solubility in water [13]: water soluble | flux of model penetrants through human skin [14]: low flux
